# Assay results taken from paper PMC9434784, “Synthesis and In Vitro Evaluation of a Set of 6-Deoxy-6-thio-carboranyl D-Glucoconjugates Shed Light on the Substrate Specificity of the GLUT1 Transporter” (ACS Omega, 2022).
# Like-named read-outs stand apart in the source and are kept apart here.
# Assays:
# [1] = biological target: T1, GLUT1 (Homo sapiens, UniProt P11166); experiment: GLUT1 affinity cis-inhibition assay against [14C]-D-glucose in CAL 27 cells; assay type: cell-based; conditions: competition with 1.8 μM [14C]-D-glucose, 5 min, room temperature, 0.1–1800 μM
# T1 construct: host or cells: CAL 27 human squamous carcinoma cells
# T1 sequence (P11166 1-492): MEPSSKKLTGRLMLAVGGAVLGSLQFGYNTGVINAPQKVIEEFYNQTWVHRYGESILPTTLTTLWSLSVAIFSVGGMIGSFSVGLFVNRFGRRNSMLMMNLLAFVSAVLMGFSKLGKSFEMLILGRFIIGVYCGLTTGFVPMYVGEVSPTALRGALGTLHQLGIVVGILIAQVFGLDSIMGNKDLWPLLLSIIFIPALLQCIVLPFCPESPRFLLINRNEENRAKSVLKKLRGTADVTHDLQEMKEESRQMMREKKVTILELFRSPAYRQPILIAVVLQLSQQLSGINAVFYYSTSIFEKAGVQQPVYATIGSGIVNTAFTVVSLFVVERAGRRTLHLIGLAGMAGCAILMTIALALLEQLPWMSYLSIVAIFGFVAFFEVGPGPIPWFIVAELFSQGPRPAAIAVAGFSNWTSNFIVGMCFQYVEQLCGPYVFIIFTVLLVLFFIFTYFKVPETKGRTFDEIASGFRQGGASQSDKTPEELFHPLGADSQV
# Text: From the drug development perspective, it is central to understand the molecular interactions between the ligand and the transporter. For example, in a BNCT context, the selectivity and success of the treatments are directly related to the preferential uptake of boron-10 enriched delivery agents by cancer cells. In our case, the GLUT1 transporter, which is overexpressed on various cancers, is responsible for the uptake process. The clinical validity and therapeutic utility of the approach stem from the “Warburg effect”.[7],[8] Cancer cells have an impaired D-glucose metabolism while simultaneously displaying a high proliferation rate and energy demand. Together, these factors contribute to an increased D-glucose uptake in cancer cells compared to healthy cells and offer a basis for pursuing a GLUT1-targeting strategy in BNCT. Based on the available tumor imaging data obtained through the use of FDG,[38] head and neck cancers represent a promising target for our approach. Therefore, we employed the human squamous carcinoma cell line CAL 27 as a suitable model for the in vitro assessment of GLUT1-targeting delivery agents. In addition to being a relevant head and neck cancer cell line of human origin, the GLUT1-transporter has been indicated to play a key role in the aberrant growth of CAL 27 cells.[39],[40] In our previous work, we validated the GLUT1-function, quantified the GLUT1-expression, and developed a cis-inhibition assay for determining the relative affinities of GLUT1-targeting delivery agents to GLUT1 in the CAL 27 cell line.[13],[14] To allow comparison of the results of the present study to our earlier ones, we used the same protocols herein. The fully deprotected glucoconjugates 1–4 were subjected to the cis-inhibition assay, i.e., they were forced to compete for the transporter against radiolabeled [^14C]-D-glucose in order to assess their targeting capabilities from a functional point of view. A high GLUT1 affinity, i.e., a low IC50 value, is characteristic of delivery agents that are able to target the transporter in the presence of the natural substrate D-glucose in a biological milieu. […] Large differences in the IC50 values were thus noted. […] These two delivery agents display acceptable GLUT1-targeting capabilities. […] While the trend is clear, the results are surprising. The question that arises is as follows: which underlying factors contribute to these notable deviations uncovered through the experimental cis-inhibition assay?
# The GLUT1 affinity assay was performed according to our previously developed protocol.[13],[14] […] Liquid scintillation counter (MicroBeta^2 counter, PerkinElmer, Waltham, MA, USA) was used to assess the radioactivity, and the IC50 values were determined by nonlinear regression analysis.
# [2] = tested on: CAL 27 cell line; experiment: Cellular uptake (boron delivery capacity) by ICP-MS boron quantification; assay type: cell-based, human; conditions: for behaviour at GLUT1 inferred from affinity and uptake profiles: CAL 27; for Vmax (boron uptake, Michaelis–Menten) / Km: 10–400 μM; for Km: read-out: Km (boron uptake, Michaelis–Menten)
# Description: The uptake studies were performed according to our recently reported protocol.[13],[14] […] This, however, is not a concern, as the cell-killing effect caused by the thermal neutron beam in actual BNCT treatments has a destructive radius reminiscent to the diameter of a single cell (5–9 μm in biological tissue).[46] In the uptake studies, the concentration range 10–400 μM was screened. The incubation times 5, 30, and 120 min were chosen due the optimal performance of [^14C]-D-glucose under these conditions. Since inductively-coupled plasma mass spectrometry (ICP-MS) is somewhat insensitive when it comes to quantification of the boron content, thoroughly washed cells from four wells were combined and digested before being subjected to the analysis. […] However, we noticed that the Km values were consistently higher with the S-linked carboranyl species compared to the O-linked carboranylmethyl species.[14] The higher Km value may imply that there are additional transport mechanisms involved in the uptake of the S-series delivery agents. More work is needed to ascertain these factors. Regardless, the different Km values may likewise indicate that a greater concentration, which may no longer be clinically relevant, would be required for the S-series species to reach Vmax.
# The cells were first pre-incubated. The substrates were then added in different concentration (10–400 μM in 250 μL of HBSS) and incubation was continued for 5, 30, and 120 min at room temperature. Ice-cold buffer was used to quench the reaction at the set time points. Washing and lysis was carried out as mentioned above. A combined sample was prepared in an Eppendorf tube by addition of cell lysate from four wells. The combined sample was centrifuged at +4 °C. From the supernatant of every sample, 800 μL was taken and digested in 1.0 mL of HNO3 (TraceMetal grade, Fisher Chemical) for 24 h. Milli-Q water (USF Elga Purelab Ultra) was added until the sample volume was 10 mL, and the boron contents were assessed in triplicates by ICP-MS. More details on the ICP method can be found in our earlier work.[13],[14] PerkinElmer Syngistix Data Analysis Software was used for data analysis and GraphPad Prism v.5.03 software (GraphPad Software, San Diego, Ca, USA) for statistical analysis.
IC50 [1] [µM],Compound,behaviour at GLUT1 inferred from affinity and uptake profiles [2],"Vmax (boron uptake, Michaelis–Menten) ([2]; CAL 27, 5 min incubation) [μg B/mg protein]","Km ([2]; CAL 27, 5 min incubation) [µM]","Vmax (boron uptake, Michaelis–Menten) ([2]; CAL 27, 30 min incubation) [μg B/mg protein]","Km ([2]; CAL 27, 30 min incubation) [µM]","boron delivery capacity compared to the other delivery agents screened (BPA, BSH) ([2]; CAL 27, 10–400 μM, 5, 30 and 120 min)","Vmax (boron uptake, Michaelis–Menten) ([2]; CAL 27, 120 min incubation) [μg B/mg protein]","Km ([2]; CAL 27, 120 min incubation) [µM]"
127,"6-Deoxy-6-thio-(1,2-dicarba-closo-dodecaboran-1-yl)-D-glucopyranose [Compound 1]",seems to act as a GLUT1-antagonist,1.34,1830,0.83,556,–,–,–
982,"6-Deoxy-6-thio-(1,2-dicarba-closo-dodecaboran-9-yl)-D-glucopyranose [Compound 3]",–,0.03,110,–,–,–,–,–
121,"6-Deoxy-6-thio-(1,7-dicarba-closo-dodecaboran-1-yl)-D-glucopyranose [Compound 2]",enters the cells through the transporter at an acceptable rate,6.60,1810,1.80,237,fivefold higher delivery capacity,2.19,208

Compound,IC50 [1] [µM],behaviour at GLUT1 inferred from affinity and uptake profiles [2],"Vmax (boron uptake, Michaelis–Menten) ([2]; CAL 27, 5 min incubation) [μg B/mg protein]","Km ([2]; CAL 27, 5 min incubation) [µM]","Vmax (boron uptake, Michaelis–Menten) ([2]; CAL 27, 30 min incubation) [μg B/mg protein]","Km ([2]; CAL 27, 30 min incubation) [µM]","boron delivery capacity compared to the other delivery agents screened (BPA, BSH) ([2]; CAL 27, 10–400 μM, 5, 30 and 120 min)","Vmax (boron uptake, Michaelis–Menten) ([2]; CAL 27, 120 min incubation) [μg B/mg protein]","Km ([2]; CAL 27, 120 min incubation) [µM]"
"OC[C@H]1OC(O)[C@H](O)[C@@H](O)[C@@H]1O (stereo partly drawn) [D-glucose, reference compound]",> 1000,–,–,–,–,–,–,–,–
